Where “and” joins values, the source holds several entries; their conditions need not be identical. Equal entries are not always repeated. Inconclusive results and toxic doses are left out. The calls were made as follows: active = survival T/C of 150% or more; inactive = T/C below 125% in these data.
System: P388 leukemia ip, CD2F1 mice, survival T/C
Assay: NCI In Vivo Anticancer Drug Screen. Data for tumor model P388 Leukemia (intraperitoneal) in CD2F1 (CDF1) mice
Conditions: endpoint: median survival time, higher = longer survival
Procedure, shortened: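 Mice carrying the transplanted tumor received test compound or vehicle. Survival was recorded in each group, and the value is the treated-group measurement divided by that of the vehicle-treated control group.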

[1] = dose: 200.0 mg/kg/injection, schedule: Q01DX009 (ip), vehicle: other
[2] = dose: 50.0 mg/kg/injection, schedule: Q01DX009 (ip), vehicle: water
[3] = dose: 50.0 mg/kg/injection, schedule: Q01DX005 (ip), vehicle: Klucel (hydroxypropylcellulose) (HPC)
[4] = dose: 100.0 mg/kg/injection, schedule: Q01DX005 (ip), vehicle: Klucel (hydroxypropylcellulose) (HPC)
[5] = dose: 200.0 mg/kg/injection, schedule: Q01DX005 (ip), vehicle: Klucel (hydroxypropylcellulose) (HPC)
[6] = dose: 60.0 mg/kg/injection, schedule: Q01DX005 (ip), vehicle: saline with Tween-80
[7] = dose: 120.0 mg/kg/injection, schedule: Q01DX005 (ip), vehicle: saline with Tween-80
[8] = dose: 240.0 mg/kg/injection, schedule: Q01DX005 (ip), vehicle: saline with Tween-80
[9] = dose: 100.0 mg/kg/injection, schedule: Q04DX003 (ip), vehicle: Klucel (hydroxypropylcellulose) (HPC)
[10] = dose: 200.0 mg/kg/injection, schedule: Q04DX003 (ip), vehicle: Klucel (hydroxypropylcellulose) (HPC)
[11] = dose: 400.0 mg/kg/injection, schedule: Q04DX003 (ip), vehicle: Klucel (hydroxypropylcellulose) (HPC)
[12] = dose: 50.0 mg/kg/injection, schedule: Q01DX005 (ip), vehicle: saline with Tween-80
[13] = dose: 100.0 mg/kg/injection, schedule: Q01DX005 (ip), vehicle: saline with Tween-80
[14] = dose: 200.0 mg/kg/injection, schedule: Q01DX005 (ip), vehicle: saline with Tween-80

Measured: T/C

Cc1[nH]c(=O)[nH]c(=O)c1/C=C/C(=O)NC(CO)CS(=O)Cc1ccccc1 (stereo not drawn)
inactive: dose: 0.07 mg/kg/injection, schedule: Q01DX009 (ip), vehicle: water 100 % of control | dose: 0.15 mg/kg/injection, schedule: Q01DX009 (ip), vehicle: water 102 % of control | dose: 0.3 mg/kg/injection, schedule: Q01DX009 (ip), vehicle: water 100 % of control | dose: 0.6 mg/kg/injection, schedule: Q01DX009 (ip), vehicle: water 103 % of control | dose: 2.0 mg/kg/injection, schedule: Q01DX009 (ip), vehicle: other 114 % of control | dose: 4.0 mg/kg/injection, schedule: Q01DX009 (ip), vehicle: other 118 % of control | dose: 8.0 mg/kg/injection, schedule: Q01DX009 (ip), vehicle: other 122 % of control | dose: 16.0 mg/kg/injection, schedule: Q01DX009 (ip), vehicle: other 118 % of control | dose: 32.0 mg/kg/injection, schedule: Q01DX009 (ip), vehicle: other 99 % of control and 108 % of control | dose: 64.0 mg/kg/injection, schedule: Q01DX009 (ip), vehicle: other 103 % of control | dose: 128.0 mg/kg/injection, schedule: Q01DX009 (ip), vehicle: other 98 % of control | [1] 92 % of control | dose: 256.0 mg/kg/injection, schedule: Q01DX009 (ip), vehicle: other 100 % of control | dose: 300.0 mg/kg/injection, schedule: Q01DX009 (ip), vehicle: other 90 % of control | dose: 400.0 mg/kg/injection, schedule: Q01DX009 (ip), vehicle: other 93 % of control

Cc1ccc(S(=O)(=O)CCC(=O)c2ccccc2)cc1
inactive: dose: 100.0 mg/kg/injection, schedule: Q04DX003 (ip), vehicle: saline 104 % of control | dose: 200.0 mg/kg/injection, schedule: Q04DX003 (ip), vehicle: saline 100 % of control | dose: 400.0 mg/kg/injection, schedule: Q04DX003 (ip), vehicle: saline 101 % of control

Cn1nc2c(c1-c1ccncc1)CCc1ccccc1-2
inactive: dose: 12.5 mg/kg/injection, schedule: Q01DX009 (ip), vehicle: other 110 % of control | dose: 25.0 mg/kg/injection, schedule: Q01DX009 (ip), vehicle: other 105 % of control | dose: 50.0 mg/kg/injection, schedule: Q01DX009 (ip), vehicle: other 115 % of control | dose: 100.0 mg/kg/injection, schedule: Q01DX009 (ip), vehicle: other 107 % of control | [1] 103 % of control

OC1CCC2SC1CCC2O (stereo not drawn)
inactive: [2] 95 % of control | dose: 100.0 mg/kg/injection, schedule: Q01DX009 (ip), vehicle: water 102 % of control | dose: 200.0 mg/kg/injection, schedule: Q01DX009 (ip), vehicle: water 108 % of control | dose: 400.0 mg/kg/injection, schedule: Q01DX009 (ip), vehicle: water 100 % of control

C=CC(=O)N1CN(C(=O)C=C)CN(C(=O)C=C)C1
inactive: dose: 6.25 mg/kg/injection, schedule: Q01DX009 (ip), vehicle: saline with Tween-80 100 % of control
active: dose: 12.5 mg/kg/injection, schedule: Q01DX009 (ip), vehicle: saline with Tween-80 158 % of control

COc1cccc2c1C(=O)c1c(O)c3c(c(O)c1C2=O)C[C@@](O)(C(=O)CO)CC3OC1CC(O)C(O)C(C)O1 (stereo partly drawn)
active: dose: 12.5 mg/kg/injection, schedule: Q04DX003 (ip), vehicle: saline 165 % of control | dose: 25.0 mg/kg/injection, schedule: Q04DX003 (ip), vehicle: saline 183 % of control | dose: 50.0 mg/kg/injection, schedule: Q04DX003 (ip), vehicle: saline 209 % of control
inactive: dose: 6.25 mg/kg/injection, schedule: Q04DX003 (ip), vehicle: saline 122 % of control

OC1CC2CC1CC2c1cnc[nH]1 (stereo not drawn)
inactive: dose: 12.5 mg/kg/injection, schedule: Q04DX002 (ip), vehicle: saline with Tween-80 100 % of control | dose: 25.0 mg/kg/injection, schedule: Q04DX002 (ip), vehicle: saline with Tween-80 100 % of control | dose: 50.0 mg/kg/injection, schedule: Q04DX002 (ip), vehicle: saline with Tween-80 100 % of control | dose: 100.0 mg/kg/injection, schedule: Q04DX002 (ip), vehicle: saline with Tween-80 100 % of control

COc1ccc(N(C)C(=S)c2ccccc2)cc1
inactive: [3] 103 % of control | [4] 96 % of control | [5] 92 % of control

Cn1cnc([N+](=O)[O-])c1Sc1ncccc1C(=O)O
inactive: [3] 112 % of control | [4] 114 % of control | [5] 105 % of control

O=C(c1ccccc1)C1(c2ccccc2)CCCCC1
inactive: [6] 94 % of control | [7] 94 % of control | [8] 86 % of control

O=C(Nc1ccc(Cl)c(Cl)c1)N1CC=CC1
inactive: [9] 101 % of control | [10] 96 % of control | [11] 94 % of control

O=C1CCC(N(Cc2ccccc2)Cc2ccccc2)C(=O)O1 (stereo not drawn)
inactive: [9] 112 % of control | [10] 109 % of control | [11] 100 % of control

COc1ccc(Cc2cc3c(cc2OCC(=O)NN)OCO3)cc1
inactive: [3] 89 % of control | [4] 88 % of control | [5] 91 % of control

COc1ccc(-[n+]2noc(N)n2)cc1
inactive: dose: 3.13 mg/kg/injection, schedule: Q01DX009 (ip), vehicle: water 99 % of control | dose: 6.25 mg/kg/injection, schedule: Q01DX009 (ip), vehicle: water 102 % of control | dose: 12.5 mg/kg/injection, schedule: Q01DX009 (ip), vehicle: water 108 % of control | dose: 25.0 mg/kg/injection, schedule: Q01DX009 (ip), vehicle: water 116 % of control | [2] 120 % of control

C=C1C[C@]23C[C@@]1(O)CC[C@H]2[C@@]12C=C[C@@H](O1)C(C(=O)OCC)=C2[C@@H]3O
inactive: dose: 3.75 mg/kg/injection, schedule: Q01DX005 (ip), vehicle: saline 109 % of control | dose: 7.5 mg/kg/injection, schedule: Q01DX005 (ip), vehicle: saline 100 % of control | dose: 15.0 mg/kg/injection, schedule: Q01DX005 (ip), vehicle: Klucel (hydroxypropylcellulose) (HPC) 97 % of control | dose: 15.0 mg/kg/injection, schedule: Q01DX005 (ip), vehicle: saline 107 % of control | dose: 60.0 mg/kg/injection, schedule: Q01DX005 (ip), vehicle: Klucel (hydroxypropylcellulose) (HPC) 117 % of control

N#Cc1cnc2nc1NCCCCCCC2
inactive: dose: 25.0 mg/kg/injection, schedule: Q04DX003 (ip), vehicle: saline with Tween-80 105 % of control | dose: 50.0 mg/kg/injection, schedule: Q04DX003 (ip), vehicle: saline with Tween-80 98 % of control | dose: 100.0 mg/kg/injection, schedule: Q04DX003 (ip), vehicle: saline with Tween-80 100 % of control

NC(=O)/C(N=Nc1ccccc1C(=O)O)=N\Nc1ccccc1C(=O)O
inactive: [3] 94 % of control | [4] 95 % of control | [5] 103 % of control

O=C(O)C1[S][Sb]([CH](C(=O)O)[CH](C(=O)O)[Sb]2[S]C(C(=O)O)C(C(=O)O)[S]2)[S]C1C(=O)O (stereo not drawn)
inactive: dose: 50.0 mg/kg/injection, schedule: Q01DX009 (ip), vehicle: saline 100 % of control | dose: 100.0 mg/kg/injection, schedule: Q01DX009 (ip), vehicle: saline 98 % of control | dose: 200.0 mg/kg/injection, schedule: Q01DX009 (ip), vehicle: saline 108 % of control

O=C(C(c1ccccc1)c1ccccc1)N1CCCCC1c1ccccc1 (stereo not drawn)
inactive: [12] 102 % of control | [13] 92 % of control | [14] 97 % of control

COS(=O)(=O)N(C)c1nc(N(C)C)nc(N(C)C)n1
inactive: dose: 50.0 mg/kg/injection, schedule: Q01DX005 (ip), vehicle: saline 96 % of control | dose: 100.0 mg/kg/injection, schedule: Q01DX005 (ip), vehicle: saline 108 % of control

CN1C(=O)C2CC(=O)NC(=O)C2C1=O (stereo not drawn)
inactive: [12] 97 % of control | [13] 96 % of control | [14] 101 % of control

Cc1cc(N2CCN(c3cc(C)c4ccccc4n3)CC2)nc2ccccc12
inactive: dose: 50.0 mg/kg/injection, schedule: Q01DX009 (ip), vehicle: saline with Tween-80 100 % of control | dose: 100.0 mg/kg/injection, schedule: Q01DX009 (ip), vehicle: saline with Tween-80 95 % of control | dose: 200.0 mg/kg/injection, schedule: Q01DX009 (ip), vehicle: saline with Tween-80 100 % of control

Cn1ncc2c(=O)[nH]c(-c3ccccc3)nc21
inactive: [6] 105 % of control | [7] 96 % of control | [8] 105 % of control
